Experimental data published in patent US9963433B2, “Anticancer drugs including the chemical structures of an androgen receptor ligand and a histone deacetylase inhibitor” (Wayne State University, priority 2016, dated 2018).
pEC50: −log10 of the molar value.

Assays:
DLC1 mRNA in LNCaP cells = assay: In situ HDACi activity: DLC1 mRNA in LNCaP cells; assay type: cell-based; details: 10 μM, 48 h, normalized to GAPDH mRNA, FIG. 2E
Protocol: FIGS. 2A-2F show measurement of intrinsic and in situ HDACi activities. […]. IC50 values were calculated from nonlinear regression plots using GraphPad Prism5 software. (2B) Enz, 1002 and 3-52 were tested against HeLa cell nuclear extract at 10 μM and 25 μM and TSA (1 μM) was used as positive control. […] Recombinant HDAC6 was incubated with each drug at the indicated concentrations. IC50 values were calculated from nonlinear regression plots using GraphPad Prism5 software. (2D) Enz, 1002 and 3-52 were tested against recombinant HDAC6 at 10 μM and 25 μM and TSA (1 μM) was used as positive control. […]
Cell Culture and Reagents. LNCaP and 22Rv1 cell lines were from American Type Culture Collection (Manassas, Va.). C4-2 cells were kindly provided by Dr. Edwin Sanchez (University of Toledo). LNCaP and C4-2 cells were routinely grown at 37° C. in 5% CO2 in RPMI 1640 medium supplemented with 10% FBS (Invitrogen); 100 units/ml penicillin, 100 μg/ml streptomycin, 2 mM L-glutamine mixture (Invitrogen); and sodium pyruvate (1 mM) (Invitrogen). 22Rv1 cells were grown in RPMI 1640 medium supplemented with 10% FBS (Invitrogen); 100 units/ml penicillin, 100 μg/ml streptomycin, 2 mM L-glutamine mixture (Invitrogen). Affinity-purified rabbit anti-human antibody to AR (sc-816) and mouse anti-human antibody to GAPDH (sc-47724) were purchased from Santa Cruz Biotechnology (Santa Cruz, Calif.). Affinity-purified rabbit anti-human antibody to Hsp90 (C45G5) #4877 and rabbit anti-human antibody to acetylated lysine #9441 were purchased from Cell Signaling Technology. R1881 was kindly provided by Dr. Stephan Patrick (Karmanos Cancer Institute). All experiments were conducted using phenol-red free growth media. For hormone depletion, cells were grown in phenol-red free RPMI 1640 medium supplemented with 10% charcoal stripped FBS (Sigma-Aldrich) which was heat inactivated at 56° C. for thirty minutes, and a mixture of 100 units/ml penicillin, 100 μg/ml streptomycin and 2 mM L-glutamine for 96 h.
(§1) RNA isolation, Reverse Transcription, and Real Time PCR. Total RNA was isolated from cells using the RNeasy Mini Kit (Qiagen). Reverse transcription PCR was then performed using 500 ng of total RNA with random primers and using the high-capacity complementary DNA Archive kit (Applied Biosystems). The complementary DNA from this reaction was measured using quantitative real time PCR using the StepONE Plus Real Time PCR system (Life Technologies Corporation, Carlsbad, Calif.). All reactions were performed in triplicate and normalized to glyceraldehyde-3-phosphate-dehydrogenase values in the same samples. All primers and Taqman probes were purchased from the applied Biosystems inventory (Invitrogen) (Patki et al., 2015).
. […]

[1] = test system: TMPRSS2 mRNA (AR target gene) in C4-2 cells; assay: Inhibition of R1881 activation of TMPRSS2 mRNA in C4-2 cells; assay type: cell-based; details: hormone depleted 96 h, R1881 1 nM, compound 1-10 μM, 48 h, FIG. 3B
Protocol: Cell Culture and Reagents. LNCaP and 22Rv1 cell lines were from American Type Culture Collection (Manassas, Va.). C4-2 cells were kindly provided by Dr. Edwin Sanchez (University of Toledo). […] R1881 was kindly provided by Dr. Stephan Patrick (Karmanos Cancer Institute). All experiments were conducted using phenol-red free growth media.
as §1, with “samples.” for “samples. All primers and Taqman probes were purchased from the applied Biosystems inventory (Invitrogen) (Patki et al., 2015).”

22Rv1 cells = assay: MTT cell viability assay, 22Rv1 cells; assay type: cell-based; details: Day 3, 0.1 μM-10 μM, FIG. 6E; for pEC50: Homo sapiens, 22Rv1, 72 h, read-out: EC50, inhibition of growth of 22Rv1 cells
Protocol: (6A) C4-2 cells were seeded in 96-well plates and 24 h later, they were treated with the indicated compounds (0.1 μM-10 μM) or with vehicle (DMSO). Cell viability was measured by the MTT assay on Days 0 and 3 of treatment. EC50 values were calculated from nonlinear regression plots using GraphPad Prism5 software. […] Cell viability was measured by the MTT assay on Days 0 and 3 of treatment. […] Cell viability was measured by the MTT assay on Days 0 and 3 of treatment. […] (6D) 22Rv1 cells were infected with AR shRNA lentivirus, or control shRNA. 72 h after infection, cells were plated and viable cells were measured by the MTT assay on the indicated days (6D, bottom). Cells were also harvested for western blot analysis and probed with antibody to AR, which was also reactive with the AR splice variant AR-V7 (6D, top). (6E) 22Rv1 cells were seeded in 96-well plates and 24 h later, they were treated with the indicated compounds (0.1 μM-10 μM) or with vehicle (DMSO). Cell viability was measured by the MTT assay on Days 0 and 3 of treatment. EC50 values were calculated from nonlinear regression plots using GraphPad Prism5 software.
Cell Proliferation Assay. Cells were trypsinized and 6000 cells/well were seeded in 96-well plates coated with poly-D-lysine. The cells were seeded in phenol red-free medium supplemented with 10% FBS, 100 units/ml penicillin, 100 μg/ml streptomycin, 2 mM L-glutamine mixture and sodium pyruvate (1 mM) for C4-2 cells and phenol red-free medium supplemented with 10% FBS, 100 units/ml penicillin, 100 μg/ml streptomycin and 2 mM L-glutamine mixture for 22Rv1 cells. The cells were grown at 37° C. in 5% CO2. Twenty four hours after seeding in the 96-well plates, the cells were treated with indicated compound or DMSO (vehicle). The culture medium was not changed during the time course of the assay. On Day zero and on Day 3, cell viability was determined using the MTT assay. MTT (10 μL, 5 mg/mL) was added to each well and incubated for 2 h at 37° C. The formazan crystal sediments were dissolved in 100 μL of DMSO, and the absorbance at 570 nm was measured using the BioTek Synergy 2 Microplate Reader (BioTek, Winooski, Vt.). […] IC50 values were calculated from nonlinear […] plots using GraphPad Prism5 software.

p21 mRNA in C4-2 cells = assay: p21 mRNA induction in C4-2 cells; details: 48 h, FIG. 5B

SMILES	DLC1 mRNA expression (DLC1 mRNA in LNCaP cells)	inhibition of activation of TMPRSS2 by R1881 [1]	effect on growth of 22Rv1 cells (22Rv1 cells)	p21 mRNA expression (p21 mRNA in C4-2 cells)	pEC50 (22Rv1 cells)
CNC(=O)c1ccc(N2C(=S)N(c3ccc(C#N)c(C(F)(F)F)c3)C(=O)C2(C)C)cc1F [Enz, Enzalutamide, reference compound]	had no effect	progressive inhibition at higher doses	not	had no effect	–
CC1(C)C(=O)N(c2ccc(C#N)c(C(F)(F)F)c2)C(=S)N1c1ccc(C(=O)NCCCCCCC(=O)NO)c(F)c1 [Compound 2-75, 4-(3-(4-cyano-3-(trifluoromethyl)phenyl)-5,5-dimethyl-4-oxo-2-thioxoimidazolidin-1-yl)-2-fluoro-N-(7-(hydroxyamino)-7-oxoheptyl)benzamide]	poor inducers of DLC1 mRNA compared with SAHA	better inhibitors of gene activation by androgen compared with either Enz or SAHA	–	induced p21 to a greater extent than SAHA	5.33
CC1(C)C(=O)N(c2ccc(C#N)c(C(F)(F)F)c2)C(=S)N1c1ccc(/C=C/C(=O)NO)c(F)c1 [Compound 1005, (E)-3-(4-(3-(4-cyano-3-(trifluoromethyl)phenyl)-5,5-dimethyl-4-oxo-2-thioxoimidazolidin-1-yl)-2-fluorophenyl)-N-hydroxyacrylamide]	poor inducers of DLC1 mRNA compared with SAHA	better inhibitors of gene activation by androgen compared with either Enz or SAHA	–	induced p21 to a greater extent than SAHA	5.38
